Reference: ChEMBL document CHEMBL1133077, “Pyrrolo[3,2-c]pyridine derivatives as inhibitors of platelet aggregation” (Bioorg Med Chem Lett, 2000)

What was measured:
[1] = 1-Octanol/water distribution coefficient measured at 7.4; type: physicochemical; settings: pH 7.4
Homo sapiens = species on record: Homo sapiens; assay: Compound was evaluated for inhibition of ADP-mediated platelet aggregation; type: functional; design: concentration or dose not given beside the values

logD [1]	SMILES	Inhibition (Homo sapiens) [%]
-1.08	CC1CNC(C)c2cc[nH]c21 (stereo not given)	26
1.14	CC1CN(C)C(C)c2cc([N+](=O)[O-])[nH]c21 (stereo not given)	3.6
-0.41	CC1CN(C)C(C)c2cc[nH]c21 (stereo not given)	28.5
0.69	CC1CN(C)C(C)c2cc(C=O)[nH]c21 (stereo not given)	48
	C=Cn1ccc2c1CCN(Cc1ccccc1)C2	38.7
	CCN1CCc2[nH]ccc2C1	23.7
	CC1CN(C)C(C)c2cc(CO)[nH]c21 (stereo not given)	3.3
	CC1CN(C)C(C)c2cc(/C=N/CCO)[nH]c21 (stereo not given)	12.2
1.59	c1ccc(CN2CCc3[nH]ccc3C2)cc1	46.5
	Clc1ccccc1CN1CCc2sccc2C1 [TICLOPIDINE]	48.5
